Assay results reported in US7375203B2, “Canine cold- and menthol-sensitive receptor 1” (Janssen Pharmaceutica N.V., priority 2004, dated 2008).
Entries after “also recorded” stand apart in the source; their conditions may differ. Blank lines part the entries; values can stand above or below the molecule they belong to.

Experiments:
canine CMR1 (cCMR1) = assay: Cell-based calcium influx (FLIPR) assay on HEK293 cells stably transfected with cCMR1; details: for calcium-mediated fluorescence (calcium influx): added at 200 seconds, room temperature
Description: The following day, the cells were loaded with buffer and calcium dye (Molecular Devices, Sunnyvale, Calif.) in a final volume of 40 μl and incubated for 30 minutes at room temperature. The fluorescence intensity was measured by FLIPR before and after the addition of menthol or icilin, which were added to the cells at a concentration of 100 μM or 10 μM each, respectively.
HEK293 cells stably transfected with cCMR1 were seeded in a 384 will plate at a concentration of […] and incubated overnight at 37° C./5% CO2. The following day the cells were loaded with calcium dye and incubated for 30 minutes at room temperature. The calcium-mediated fluorescence intensity was measured by FLIPR before and after the compound was administered to the cells.

cCMR1 channel = assay: Whole-cell patch clamp recording of HEK293 cells stably transfected with cCMR1; type: cell-based, canine
Description: HEK293 cells stably transfected with canine cCMR1 were cultured in DMEM supplemented with 10% fetal bovine serum, 100 units/ml penicillin, 100 μg/ml streptomycin and 1 mg/ml G418. Cells were maintained at 37° C. and in 5% CO2. Unless otherwise indicated, the standard extracellular solution used for recording contained (in mM): NaCl, 132; EGTA, 1; KCl, 5.4; MgCl2, 0.8; HEPES, 10; glucose, 10; pH=7.4. In experiments where the extracellular solution contained Ca^2+, the extracellular solution used was one of the following (in mM), depending on the Ca^2+ concentration used: (1) NaCl, 132; CaCl2, 0.1 or 1.8; KCl, 5.4; MgCl2, 0.8; HEPES, 10; glucose, 10; pH=7.4; (2) NaCl, 116; CaCl2, 10; KCl, 5.4; MgCl2, 0.8; HEPES, 10; glucose, 10; pH=7.4. The intracellular solution used to fill recording pipettes contained (in mM): CsCl, 145; EGTA, 5; HEPES, 10; glucose, 5; pH=7.4. Recordings were performed using the conventional whole-cell patch clamp technique, 1-2 days after plating cells onto glass coverslips at densities appropriate for single cell recording. Currents were amplified by a patch clamp amplifier and filtered at 2 kHz (Axopatch 200B, Axon Instruments). […] Recordings involving agonist stimulations were performed at 22° C. In experiments where temperatures were varied, temperature ramps were generated by heating/cooling the perfusate in a dual in-line heater/cooler (Model SC-20, Warner Instruments, Hamden, Conn.) controlled by a bipolar temperature controller (Model CL-100, Warner Instruments). The temperature in the vicinity of the recorded cell was measured with a custom-made miniature thermo-microprobe connected to a monitoring thermometer (Model TH-8, Physitemp, Clifton, N.J.), and sampled using Digidata 1322A and pClamp 9.0 (Axon Instruments, Union City, Calif.), as were the currents concurrently measured in the whole-cell patch clamp mode. Two voltage protocols were used in these studies. The first involved a 600 ms voltage ramp from −100 mV to +60 mV at a sampling rate of 10 kHz. This voltage pulse was repeated once every 5 seconds. The cell was held at −100 mV between voltage pulses. In the second protocol, the cell was held at −80 mV and the current was continuously sampled (at 100 Hz) at this holding potential.

SMILES: O=C1NC(c2cccc([N+](=O)[O-])c2)=CCN1c1ccccc1O [icilin]
calcium-mediated fluorescence (activation of cCMR1) (canine CMR1 (cCMR1); 100 nM icilin (positive control)): sensitive; also recorded: increase in calcium-mediated fluorescence
calcium-mediated fluorescence (calcium influx) (canine CMR1 (cCMR1); 10 μM icilin): increase in calcium-mediated fluorescence
whole-cell current amplitude, rectification and reversal potential (cCMR1 channel; icilin (1 μM), voltage ramp protocol, compared with the menthol results): Qualitatively similar results

SMILES: C=CCN=C=S [mustard oil]
calcium-mediated fluorescence (activation of cCMR1) (canine CMR1 (cCMR1); 1 mM mustard oil): activated; also recorded: increase in calcium-mediated fluorescence

IC50 (cCMR1 channel; voltage-clamped at −80 mV, channel activated by 1 mM menthol, logistic best fit, read-out: IC50 of inhibition of cCMR1 current amplitude by extracellular Ca^2+): 1.6 mM
SMILES: [Ca+2] [extracellular Ca^2+]
desensitization of menthol-activated cCMR1 current (cCMR1 channel; 1.8 mM extracellular Ca^2+, 100 μM menthol, −80 mV): desensitization readily occurred
voltage dependence of inhibition of cCMR1 current amplitude (cCMR1 channel; 10 mM extracellular Ca^2+, channel activated by 1 mM menthol): strongly inhibited the current amplitude at hyperpolarized potentials

SMILES: CC1CCC(C(C)C)C(O)C1 (centres unmarked) [menthol]
calcium-mediated fluorescence (calcium influx) (canine CMR1 (cCMR1); 100 μM (−)-menthol): increase in calcium-mediated fluorescence
reversal potential of the menthol-activated current (cCMR1 channel; 100 μM menthol, voltage ramp protocol): ~0 mV
whole-cell current amplitude (cCMR1 channel; 100 μM menthol, voltage ramp −100 mV to +60 mV, 22° C., compared to buffer control): large increase of the whole-cell current amplitude
current activated in the absence of extracellular Ca^2+ (cCMR1 channel; 100 μM menthol, −80 mV, no extracellular Ca^2+): activated a non-desensitizing current
